Test results: US11590119B2, “(S)-2-(1-(5-(cyclohexylcarbamoyl)-6-(propylthio)pyridin-2-yl)piperidin-3-yl)acetic acid for use in medicine” (University of Leeds, priority 2019, dated 2023)

Experiments:
11β-HSD1 [1] = biological target: T1, 11β-HSD1 (Homo sapiens, UniProt P28845); assay: 11β-HSD1 activity (conversion of cortisone to cortisol) in primary human dermal fibroblasts; type: cell-based; design: from tissue; host or cells: adipose tissue of abdominally obese healthy adult male volunteers
Description: FIG. 5: 11β-HSD1 activity in primary human dermal fibroblasts.
In order to investigate the effects, prevalence and relevance of 11β-HSD1 in human skin and diabetic wound healing the effects of the proinflammatory cytokine, IL-1β on human dermal fibroblasts (HDFs) in culture was assessed in the preclinical setting. […] In these experiments RU486 (mifepristone) was used as a competitive cortisol antagonist.

11β-HSD1 mRNA expression = 11β-HSD1 mRNA expression in cultured human dermal fibroblasts; type: cell-based; details: HDFs in culture; cortisol 24 h; IL-1β 10 ng/mL; cortisol 100 nM in combination
HUVEC tubule formation = assay: HUVEC tubule formation, in vitro model of angiogenesis; type: cell-based, human; details: IL-1β 10 ng/ml; cortisone 200 nM; AZD4017 1 μM with cortisone; biological n=1
epidermis = assay: Phase II trial in T2DM: epidermal thickness by OCT; type: in vivo, human; details: day 35, 400 mg twice daily
Description: FIG. 14: Epidermal thickness (μm) in the placebo (PBO) and AZD4017 (AZD) treated arms after 35 days.
As noted above, glucocorticoid therapy is known to cause skin thinning and dispose patients to the development of chronic wounds. Epidermal thickness was measured by OCT at Visits 1 (day 0) and 6 (day 35, i.e. after 35 days of treatment with 400 mg AZD4017, twice daily). Results from these measurements are presented alongside the confidence interval in the measurements at day 35.

stratum corneum = assay: Phase II trial in T2DM: N tapes, tape stripping to a pre-specified TEWL; type: in vivo, human; details: after 4 weeks treatment
Description: FIG. 16: The number of tapes (N tapes) required to achieve the equivalent amount of barrier disruption in the placebo (PBO) and AZD4017 (AZD) treated arms at day 28. Confidence intervals are presented to the right.
A further way in which the skin quality of patients treated with AZD4017 was evaluated involved stripping of the skin with adhesive patches to achieve a consistent damage level as established by transepidermal water loss (TEWL), a measure of the permeability of the skin barrier.
In more detail, evaporation of water from the skin occurs as part of normal skin metabolism. As barrier function is disrupted, water loss increases. The Tewameter® TM 300 probe (commercially available from Courage and Khazaka Electronic GmbH, 50829 Köln, Germany) measures the density gradient of the water evaporation from the skin by two pairs of sensors (temperature and relative humidity) inside a hollow cylinder. […]
Adhesive patches (D-Squame® tapes, from D-Squame, Clinical and Derm LLC, Dallas, Tex., www.clinicalandderm.com) were used to gently remove the stratum corneum layers to a pre-specified TEWL (trans-epidermal water loss) rate from the lower inner forearm at Visits 1 and 4. […] At day, after 4 weeks treatment, the number of tapes required to induce the same level of damage on the skin as evaluated by this technique was 43% higher in the 11β-HSD1 inhibitor treated cohort than in the placebo arm.

MMP7 and TGM2 expression = assay: Protein profiling (Sciomics) and RNAseq of primary human dermal fibroblasts; type: cell-based; details: HDFs, IL-1β+cortisone+AZD4017, n=3
Text: Protein profiling (Sciomics) conducted on primary human dermal fibroblasts (HDF) treated with vehicle, IL-1β, IL-1β+cortisone or IL-1β+cortisone+the selective 11β HSD1 inhibitor AZD4017 (n=3, same HDF as for RNAseq experiments) identified a number of proteins regulated by 11β-HSD1. […] The proteins found to be regulated by 11β-HSD1 include MMP7 and TGM2. […] Regulation of MMP7 by GC has to the best of our knowledge not previously been reported (Velasco, J., et al., J Biol Chem, 2011. 286(29): p. 26016-27).

[2] = Phase II trial in T2DM: adverse effects; type: in vivo, human; details: T2DM patients, 400 mg twice daily oral, 35 days
Text: AD4017 is thus identified for the first time as a safe and effective agent with therapeutic and prophylactic potential for the treatment of wound healing in patient populations susceptible to the development of chronic wounds and the complications associated therewith.

[3] = test system: fibroblasts and endothelial cell co-culture; assay: Angiogenesis co-culture assay with HDF conditioned media (tube length, branch points); type: cell-based, human; details: conditioned media of HDFs treated with IL-1β+200 nM cortisone+1 μM AZD4017, 7 days in culture
Description: In order to further study the effects of AZD4017 on angiogenesis in a quantitative manner, a further related experiment to that described above was performed. In this model in vitro cultured human dermal fibroblasts were treated with a) 10 ng/ml IL-1β, b) IL-1β+100 nM cortisol, c) IL-1β+200 nM cortisone or d) IL-1β+cortisone+1 μM AZD4017 (selective 11β-HSD1 inhibitor).

skin wounds [4] = assay: Phase II trial in T2DM: wound gap diameter of punch biopsy wounds by OCT; type: in vivo, human
Text: FIG. 13: Wound healing in placebo (PBO) and AZD4017 (AZD) treated cohorts as evidenced by wound gap diameter of wounds inflicted at days 0 and 28 at days 2 and 30, respectively. Confidence intervals for measurements are provided to right.
Both biopsies from visit 1 (day 0) and two biopsies from visit 4 (day 28) were imaged by OCT at Visits 2, 3, 5 and 6 as appropriate. Optical coherence tomography OCT (Greaves, N. S., et al., Br J Dermatol, 2014. 170(4): p. 840-50) has proven a useful tool for the evaluation of wound re-epithelialization. OCT uses light to capture sub-micrometre resolution, three-dimensional images from within biological tissue (e.g. skin). The method is based on low-coherence interferometry, typically employing near-infrared light. The use of relatively long wavelength light allows it to penetrate 1-2 mm into the tissue. In addition to wound diameter, collected images capture information on vascularization.
The procedure takes approximately 2 minutes using a small probe applied to the skin. The procedure is non-invasive and pain-free. Image files (including enrolment number, visit number and date) were stored on the OCT machine until the end of the trial, then transferred to a secure server, compiled, analysed and values for wound diameter entered into the case report form (CRF).
The initial wounds created by puncture at days 0 and 28, respectively, were 3 mm in diameter. Treatment with AZD4017 (400 mg, twice daily oral) was initiated on day 0 and maintained for 35 days.
Thus administration of AZD4017 […] delivered a significant improvement in the rate of wound healing.

skin wounds [5] = assay: Phase II trial in T2DM: deep learning segmentation of OCT wound images; type: in vivo, human; details: day 30, 2 days after wounding at day 28, p<0.05
Text: FIG. 17: 2D OCT image of wound segmented into compartments. i) void; ii) intact tissue; iii) wound collagen; iv) wound with sponginess morphology; v) neoepidermis; vi) clot & vii) blood (in liquid form).
FIG. 18: Figure illustrating the improved amount of A) neoepidermis and B) clot volume two days after wounding and after 30 days of treatment with AZD4017 (AZD) and placebo (PBO).
To further understand the effects of AZD4017 in the wound healing process a deep learning based image processing method was developed for recognising different sub-tissue components from optical coherence tomography (OCT) images. The method was based on a u-net convolutional neural network (see Ronneberger O., Fischer P., Brox T. (2015) U-Net: Convolutional Networks for Biomedical Image Segmentation. In: Navab N., Hornegger J., Wells W., Frangi A. (eds) Medical Image Computing and Computer-Assisted Intervention—MICCAI 2015. MICCAI 2015. Lecture Notes in Computer Science, vol 9351. Springer, Cham. https://doi.org/10.1007/978-3-319-24574-4_28). […]
Further morphological image processing was then performed to the labelled image as post processing processes to show meaningful continuous regions of sub-tissue components. As a result, the area (mm^2) of each sub-tissue components could be calculated. In addition the volume (mm^3) of each sub-tissue components across 120 slices of tissues were also determined. […]

11β-HSD1 [6] = biological target: T1, 11β-HSD1; details: abdominally obese healthy adult male volunteers, daily oral dosing
Description: In more detail, a Phase I study using AZD4017 in abdominally obese healthy adult male volunteers involved an assessment of 11β-HSD1 inhibition in human adipose tissue as a function of time following daily oral dosing of the inhibitor (11β-HSD1 activity was assessed by an assay measuring the conversion of cortisone to cortisol in adipose tissue samples). […] Tachyphylaxis was also investigated with an additional AstraZeneca 11β-HSD1 inhibitor, AZD8329, from a different chemical series (see Morentin Gutierrez et al, Br J Pharmacol […], 172, 4806-16).
FIG. 1: Conversion of ^3H cortisone [20 nM] to ^3H cortisol (%/100 mg adipose tissue) after repeated dosing of AZD4017.

11β-HSD1 [7] = biological target: T1, 11β-HSD1; details: cited from earlier work
11β-HSD = details: mice, topical treatment, oral corticosterone; cited from earlier work

T1 sequence (P28845 whole entry): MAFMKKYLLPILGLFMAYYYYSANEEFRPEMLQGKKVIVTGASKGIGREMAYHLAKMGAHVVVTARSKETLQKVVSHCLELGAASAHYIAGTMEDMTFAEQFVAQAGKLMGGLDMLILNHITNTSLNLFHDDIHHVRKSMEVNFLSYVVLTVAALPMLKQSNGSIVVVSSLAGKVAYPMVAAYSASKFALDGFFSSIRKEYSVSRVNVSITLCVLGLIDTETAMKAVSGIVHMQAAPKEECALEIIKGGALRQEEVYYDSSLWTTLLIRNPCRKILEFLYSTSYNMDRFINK

IL-1β: interleukin 1β (pro-inflammatory cytokine)
increase in conversion of cortisone (E) to cortisol (F) relative to untreated HDFs (11β-HSD1 [1]; 24 h IL-1β pretreatment, conversion over 48 h): 6 fold | increase in 11β-HSD1 mRNA expression (11β-HSD1 mRNA expression): 10 fold | tubule formation (HUVEC tubule formation): stimulate tubule formation

CCCSc1nc(N2CCC[C@@H](CC(=O)O)C2)ccc1C(=O)NC1CCCCC1 [AZD4017, (S)-2-(1-(5-(cyclohexylcarbamoyl)-6-(propylthio)pyridin-2-yl)piperidin-3-yl)acetic acid]
effect on 11β-HSD1 enzyme activity and production of F (cortisol) (11β-HSD1 [1]; 1 μM, over 18 h, HDFs pretreated with IL-1β and cortisol): completely blocked the enzyme activity | epidermal depth greater than the placebo arm (epidermis): 5.58 μm | tubule formation (HUVEC tubule formation): the same IL-1β stimulated tubule formation as observed in the absence of cortisone | number of tapes required to induce the same level of damage, higher than in the placebo arm (stratum corneum): 43% | MMP7 protein and gene expression (MMP7 and TGM2 expression): downregulated MMP7 | TGM2 protein and gene expression (MMP7 and TGM2 expression): stimulate TGM2 protein and gene expression | adverse effects in the treatment cohort [2]: no significant adverse effects | IL-1β stimulated tube formation (tube length, number of branch points) [3]: decreased the negative effects of cortisone/cortisol | mean wound gap diameter (skin wounds [4]; day 2, 3 mm wound inflicted at day 0, 400 mg twice daily oral from day 0): 0.98 mm | improvement in the extent of healing relative to placebo arm (skin wounds [4]; day 2, wound inflicted at day 0): 35% | mean wound gap (skin wounds [4]; day 30, 3 mm wound inflicted at day 28, after 4 weeks pretreatment): 0.67 mm | improvement in the extent of healing relative to placebo arm (skin wounds [4]; day 30, wound inflicted at day 28): 55% | volume of clots in the wound site compared to placebo (skin wounds [5]): statistical significant increases | volume of neoepidermis in the wound site compared to placebo (skin wounds [5]): statistical significant increases | 11β-HSD1 activity in adipose tissue relative to baseline (11β-HSD1 [6]; day 1): reduced 11β-HSD1 activity relative to baseline | net 11β-HSD1 activity in adipose tissue post-dose versus baseline level on day 0 (11β-HSD1 [6]; day 9 post dose): still greater than the baseline level on day 0 | cortisol levels in the adipose tissues (11β-HSD1 [7]; after 9 days dosing, versus before dosing): higher than those measured before dosing commenced | inhibition of 11β-HSD1 activity in adipose tissue (11β-HSD1 [7]; after 9 days of treatment, as quoted from Freude): not observed after 9 days of treatment | inhibition of 11β-HSD1 activity in adipose tissue vs baseline (11β-HSD1 [7]; after single doses, as quoted from Freude): 50%

CC1(C)[C@@H](OC(=O)CCC(=O)O)CC[C@]2(C)[C@H]3C(=O)C=C4[C@@H]5C[C@@](C)(C(=O)O)CC[C@]5(C)CC[C@@]4(C)[C@]3(C)CC[C@@H]12 [carbenoxolone, reference compound]
inhibition of conversion of E to F (11β-HSD1 [1]; 25 μM, 18 h, HDFs pretreated with IL-1β and cortisol): did not significantly inhibit | effect on delay in wound healing caused by corticosteroid excess (11β-HSD): reverse the delay in wound healing

C[C@]12CCC(=O)C=C1CC[C@@H]1[C@@H]2[C@@H](O)C[C@@]2(C)[C@H]1CC[C@]2(O)C(=O)CO [cortisol, reference compound]
increase in 11β-HSD1 mRNA expression (11β-HSD1 mRNA expression): 6 fold

C[C@]12CCC(=O)C=C1CC[C@@H]1[C@@H]2C(=O)C[C@@]2(C)[C@H]1CC[C@]2(O)C(=O)CO [cortisone, reference compound]
tubule formation (HUVEC tubule formation): blocked
